Test results published in patent US20040147545A1, “Derivatives of oxazolidinones as antibacterial agents” (priority 2001, published 2004).
In brackets after ≈: the same amount, converted by molar mass.

Tests used:
Type in all cases: cell-based
[1] = system: S. aureus resistant to meticillin; experiment: Antibacterial activity, microdilution in culture broth (NCCLS), strain A; conditions: Staphylococcus aureus, G (+) hospital strain, inoculum 5×10^5 UFC/ml
Description: (§1) The antibacterial activity of the new synthesised compounds on the various strains of the bacterial species was implemented using the technique of microdilution in culture broth according to the regulations of the National Committee for Clinical Laboratory Standards (NCCLS), (NCCLS. 1993. Methods for dilution antimicrobial susceptibility tests for bacteria that grow aerobically. Approved standard M7-A3. NCCLS, Vilanova. Pa., and NCCLS. 1993. Methods for dilution antimicrobial susceptibility tests for anaerobic bacteria […]. Approved standard M1-A3. NCCLS, Vilanova. Pa.).
(§2) The inoculum used was 5×10^5 UFC/ml following dilution of the cultures overnight in the exponential phase of bacterial growth.
(§3) The MIC expressed in mg/l was defined as the minimum concentration of antibiotic which inhibited any visible growth.
(§4) Linezolid was included as comparative compound.
(§5) The compounds were tested on the strains of G(+) and G(−) bacteria set out in Table 1, in which: […]

[2] = system: E. faecalis resistant to vancomycin; experiment: Antibacterial activity, microdilution in culture broth (NCCLS), strain B; conditions: Enterococcus faecalis, G (+) hospital strain, inoculum 5×10^5 UFC/ml
Description: as §1, §2, §3, §4, §5

[3] = system: S. pneumoniae resistant to penicillin; experiment: Antibacterial activity, microdilution in culture broth (NCCLS), strain C; conditions: Streptococcus pneumoniae, G (+) hospital strain, inoculum 5×10^5 UFC/ml
Description: as §1, §2, §3, §4, §5

S. agalactiae = experiment: Antibacterial activity, microdilution in culture broth (NCCLS), strain D; conditions: Streptococcus agalactiae, G (+) hospital strain, inoculum 5×10^5 UFC/ml
Description: as §1, §2, §3, §4, §5

S. epidermidis = experiment: Antibacterial activity, microdilution in culture broth (NCCLS), strain E; conditions: Staphylococcus epidermidis, G (+) hospital strain, inoculum 5×10^5 UFC/ml
Description: as §1, §2, §3, §4, §5

S. pyogenes = experiment: Antibacterial activity, microdilution in culture broth (NCCLS), strain F; conditions: Streptococcus pyogenes, G (+) hospital strain, inoculum 5×10^5 UFC/ml
Description: as §1, §2, §3, §5

B. fragilis = experiment: Antibacterial activity, microdilution in culture broth (NCCLS), strain G (anaerobic); conditions: Bacteroides fragilis, anaerobic hospital strain, inoculum 5×10^5 UFC/ml
Description: as §1, §2, §3, §4, §5

E. coli = experiment: Antibacterial activity, microdilution in culture broth (NCCLS), strain H; conditions: Escherichia coli, G (−) hospital strain, inoculum 5×10^5 UFC/ml
Description: as §1, §2, §3, §4, §5

H. influenzae = experiment: Antibacterial activity, microdilution in culture broth (NCCLS), strain I; conditions: Haemophilus influenzae, G (−) hospital strain, inoculum 5×10^5 UFC/ml
Description: as §1, §2, §3, §4, §5

M. Catarrahalis = experiment: Antibacterial activity, microdilution in culture broth (NCCLS), strain J; conditions: G (−) hospital strain, inoculum 5×10^5 UFC/ml
Description: as §1, §2, §3, §4, §5

| SMILES | MIC [1] [µg/mL] | MIC [2] [µg/mL] | MIC [3] [µg/mL] | MIC (S. agalactiae) [µg/mL] | MIC (S. epidermidis) [µg/mL] | MIC (S. pyogenes) [µg/mL] | MIC (B. fragilis) [µg/mL] | MIC (E. coli) [µg/mL] | MIC (H. influenzae) [µg/mL] | MIC (M. Catarrahalis) [µg/mL] |
| --- | --- | --- | --- | --- | --- | --- | --- | --- | --- | --- |
| CCOC(=O)c1cn(CCF)c2c(F)c(N3CCN(c4ccc(N5C[C@H](CNC(C)=O)OC5=O)cc4F)CC3)c(F)cc2c1=O [EXAMP. 17, 7-(4-{4-[5-(S)-(acetylamino-methyl)-2-oxo-oxazolidin-3-yl]-2-fluoro-phenyl}-piperazin-1-yl)-6,8-difluoro-1-(2-fluoro-ethyl)-4-oxo-1,4-dihydro-quinoline-3-carboxylic Acid Ethyl Ester] | 2 (≈ 3.16 µM) | 2 (≈ 3.16 µM) | 0.5 (≈ 0.789 µM) | 0.5 (≈ 0.789 µM) | 1 (≈ 1.58 µM) | 1 (≈ 1.58 µM) | 4 (≈ 6.31 µM) | > 64 | 64 (≈ 101 µM) | 4 (≈ 6.31 µM) |
| CNC(=S)NC[C@H]1CN(c2ccc(N3CCN(c4cc5c(cc4F)c(=O)c(C(=O)O)cn5C4CC4)CC3)c(F)c2)C(=O)O1 [EXAMP. 9, 1-cyclopropyl-6-fluoro-7-[4-(2-fluoro-4-{5-(S)-[(3-methyl-thioureido)-methyl]-2-oxo-oxazolidin-3-yl}-phenyl)-piperazin-1-yl]-4-oxo-1,4-dihydro-quinoline-3-carboxylic Acid] | < 0.125 | < 0.125 | < 0.125 | < 0.125 | < 0.125 | < 0.125 | 0.5 (≈ 0.816 µM) | > 64 | 1 (≈ 1.63 µM) | 0.25 (≈ 0.408 µM) |
| CCn1cc(C(=O)O)c(=O)c2cc(F)c(N3CCN(c4ccc(N5C[C@H](CNC(C)=O)OC5=O)cc4F)CC3)cc21 [EXAMP. 4, 7-(4-{4-[5-(S)-(acetylamino-methyl)-2-oxo-oxazolidin-3-yl]-2-fluoro-phenyl}-piperazin-1-yl)-1-ethyl-6-fluoro-4-oxo-1,4-dihydro-quinoline-3-carboxylic Acid] | 0.25 (≈ 0.439 µM) | 0.25 (≈ 0.439 µM) | < 0.125 | < 0.125 | < 0.125 | < 0.125 | 0.5 (≈ 0.878 µM) | 16 (≈ 28.1 µM) | 2 (≈ 3.51 µM) | 1 (≈ 1.76 µM) |
